Key:
[1] = system: zebrafish intersegmental vessels; experiment: Quantification of intersegmental vessel number in zebrafish; format: in vivo; details: for inhibition of developmental angiogenesis of intersegmental vessels (number of intersegmental vessels): 10 μM, from 6 hpf; for dose-dependent inhibition of development of intersegmental vessels: decreasing doses 10, 7.5, 5 and/or 1 μM, HCl salt
Procedure, shortened: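 Zebrafish larvae were dechorionated by hand, euthanised, and fixed overnight at 4° C. in 4% PFA before being analysed. Following PBS washes, they were placed on depression slides and examined by epi-fluorescence on an Olympus SZX16 fluorescent microscope. Intersegmental vessels were counted, and the mean count was plotted for each drug.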

[2] = system: retinal blood vessels; experiment: Ocular neovascularisation in mouse oxygen-induced retinopathy model; format: in vivo, C57BL/6J mice; details: 5 μM injected intravitreally on P13, culled P17; compared to P17 control
Experimental: Postnatal day (P) 7 C57BL/6J mice together with their dams were treated in 75% oxygen (hyperoxia) for 5 days causing regression of retinal blood vessels. They were returned to normoxia (relative hypoxia) on P12, causing rapid regrowth of the retinal blood vessels, 5 μM 11B_CC11_HCl, 5 μM 11B_CC16_HCl, 5 μM pazopanib or 2.5 mg/ml avastin was injected intravitreally on P13. The mice were culled on P17, eyes fixed in 4% paraformaldehyde at 4° C. overnight, flat mounted and retinas stained for isolectin (red, stains vasculature).

[3] = target: T1, CysLT1 receptor (Homo sapiens, UniProt Q9Y271); experiment: CysLT1 calcium mobilisation assay in CHO cells; format: cell-based; details: 0.1 nM LTD4, CHO cells expressing CysLT1, read-out: inhibition of calcium mobilisation (CysLT1 antagonism)
T1 construct: host or cells: CHO cells
T1 sequence (Q9Y271 1-337): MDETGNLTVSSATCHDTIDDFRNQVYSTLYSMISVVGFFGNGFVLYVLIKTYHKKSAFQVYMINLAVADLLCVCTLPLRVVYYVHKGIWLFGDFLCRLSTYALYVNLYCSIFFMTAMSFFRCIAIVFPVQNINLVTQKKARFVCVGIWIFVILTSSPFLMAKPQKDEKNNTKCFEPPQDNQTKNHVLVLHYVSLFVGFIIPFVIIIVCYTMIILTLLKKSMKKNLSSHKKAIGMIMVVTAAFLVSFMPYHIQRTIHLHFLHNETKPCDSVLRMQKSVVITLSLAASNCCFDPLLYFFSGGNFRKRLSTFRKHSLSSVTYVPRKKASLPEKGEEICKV
Experimental: (§1) FIG. 15 tables the percentage inhibition by compounds 11B_CC11_HCl and 11B_CC16_HCl on the cysteinyl leukotriene pathway in in vitro and ex vivo assays. […] For in vitro cysteinyl leukotriene cell-based assays 11B_CC11_HCl and 11B_CC16_HCl, were tested at 30 μM concentration in duplicate, in a single experiment for their ability to inhibit the calcium mobilisation response of the CysLT1 receptor to 0.1 nM leukotriene D4 in CHO cells over-expressing the CysLT1 receptor or the calcium mobilisation response of the CysLT2 receptor to 30 nM of leukotriene C4 in HEK 293 cells over expressing the CysLT2 receptor.
(§2) Target profiling using Cerep and Eurofins/Panlabs profiling screens was undertaken using 11B_CC11_HCl and 11B_CC16_HCl in order to investigate the mechanism of action. […] Test substance (30 LM)-induced isometrically recorded contraction by 50 percent or more within 5 min, relative to control 3 nM leukotriene D4 response, indicates possible cysteinyl-leukotriene LT1 receptor agonist activity. […] To measure inhibition of cysteinyl leukotriene 1 (CysLT1 [LTD4]) and cysteinyl leukotriene 2 (CysLT2 [LTC4]) receptor activity, calcium mobilisation was measured using Fluor-3-loaded CHO cells (for cysLT1 assays) or HEK-293 cells (for CysLT2 assays) which stably express either the CysLT1 or CysLT2 receptors. […]

[4] = target: T2, CysLT2 receptor (Homo sapiens, UniProt Q9NS75); experiment: CysLT2 calcium mobilisation assay in HEK 293 cells; format: cell-based; details: HEK293, 30 nM LTC4, HEK-293 cells expressing CysLT2, read-out: inhibition of calcium mobilisation (CysLT2 antagonism)
T2 construct: host or cells: HEK 293 cells
T2 sequence (Q9NS75 1-346): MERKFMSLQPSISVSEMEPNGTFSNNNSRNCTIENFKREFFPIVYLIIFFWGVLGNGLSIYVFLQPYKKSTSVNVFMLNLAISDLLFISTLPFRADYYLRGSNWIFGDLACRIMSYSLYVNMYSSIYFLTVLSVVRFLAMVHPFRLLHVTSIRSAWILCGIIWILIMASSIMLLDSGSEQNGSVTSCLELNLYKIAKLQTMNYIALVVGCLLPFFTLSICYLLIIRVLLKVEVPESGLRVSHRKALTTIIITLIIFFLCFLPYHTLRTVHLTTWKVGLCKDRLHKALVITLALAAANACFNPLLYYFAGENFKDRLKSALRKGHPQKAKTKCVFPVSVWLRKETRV
Experimental: as §1, §2

| inhibition at 30 µM [3] | inhibition at 30 µM [4] | Compound | inhibition of developmental angiogenesis of intersegmental vessels (number of intersegmental vessels) [1] | dose-dependent inhibition of development of intersegmental vessels [1] | dose-dependent inhibition of development of intersegmental vessels ([1]; listed as 11B-CC11 HCl) | inhibition of neovascularisation (avascular region as percentage of whole retina) [2] |
| --- | --- | --- | --- | --- | --- | --- |
| 137% | 41% | C/C(=C\c1ccccc1O)c1ccc2ccccc2n1.Cl [Compound 11B_CC11_HCl, (E)-2-(2-Quinolin-2-yl-propenyl)-phenol HCl salt] | inhibit developmental angiogenesis of zebrafish intersegmental vessels in a statistically significant manner | inhibit developmental angiogenesis of zebrafish intersegmental vessels in a dose-dependent statistically significant manner | dose-dependent effect | inhibit neovascularisation |
| – | – | Cl.Oc1ccccc1/C=C\c1ccc2ccccc2n1 [Compound 11B_Z_HCl, (Z)-2-(2-(Quinolin-2-yl)vinyl) phenol HCl salt] | inhibit developmental angiogenesis of zebrafish intersegmental vessels in a statistically significant manner | – | – | – |
